Experimental data taken from PubChem BioAssay (NCI).
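These data come from cells grown in 96-well plates and exposed to compound for 48 hours at five concentrations. TGI denotes the concentration required for complete inhibition of growth.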

Assays:
Assay in all cases: NCI-60 cell line screen, 48 h
ACHN renal = system: ACHN renal
HCT-15 colon = system: HCT-15 colon
KM12 colon = system: KM12 colon
MCF7 breast = system: MCF7 breast
MDA-N = system: MDA-N
NCI-H23 lung = system: NCI-H23 lung
OVCAR-8 ovarian = system: OVCAR-8 ovarian
RPMI-8226 leukemia = system: RPMI-8226 leukemia
RXF 393 renal = system: RXF 393 renal
SNB-19 CNS = system: SNB-19 CNS

Row | SMILES | TGI (ACHN renal) | TGI (HCT-15 colon) | TGI (KM12 colon) | TGI (MCF7 breast) | TGI (MDA-N) | TGI (NCI-H23 lung) | TGI (OVCAR-8 ovarian) | TGI (RPMI-8226 leukemia) | TGI (RXF 393 renal) | TGI (SNB-19 CNS)
1 | O=c1[nH]cnc2c1cnn2Cc1cn(CCCCO)nn1 | > 100 µM | > 100 µM | > 100 µM | > 100 µM | > 100 µM | > 100 µM | > 100 µM | > 100 µM | > 100 µM | > 100 µM
2 | O=C1Nc2cccc(Cl)c2/C1=C\c1c(Cl)nc2n1CCS2 | > 100 µM | > 100 µM | > 100 µM | > 100 µM | > 100 µM | > 100 µM | > 100 µM | > 100 µM | > 100 µM | > 100 µM
3 | Cc1n(Cc2ccccc2)c2c([n+]1C)C(=O)c1ccccc1C2=O | 11.4 µM | 16.2 µM | 0.708 µM | 0.079 µM | 0.32 µM | 0.177 µM | 0.826 µM | 39.1 µM | 2.42 µM | 0.0916 µM
4 | Nc1ccc2c(c1)C(=O)N1CCC[C@H]1C(=O)N2 | > 100 µM | > 100 µM | > 100 µM | > 100 µM | > 100 µM | > 100 µM | > 100 µM | > 100 µM | > 100 µM | > 100 µM
5 | CCCNC(=O)NNC(=O)c1c[nH]c2nc(C)ccc2c1=O | > 100 µM | > 100 µM | > 100 µM | > 100 µM | > 100 µM | > 100 µM | > 100 µM | > 100 µM | > 100 µM | > 100 µM
6 | Cc1ccc(/C=N/Nc2cc(C)c3cccc(C)c3n2)s1 | 68.5 µM | 17.4 µM | 23.7 µM | 18 µM | 25.1 µM | 35.2 µM | 26.9 µM | 67.4 µM | 32.8 µM | > 100 µM
7 | Brc1ccc2[nH]cc(-c3csc(-c4c[nH]c5ccccc45)n3)c2c1 | 13.2 µM | 6.54 µM | 5.69 µM | > 100 µM | 7.65 µM | 8.21 µM | 21.2 µM | 12.1 µM | 11.2 µM | 9.6 µM
8 | O=C1Sc2cc3ccccc3cc2C(=O)Sc2ccc(Br)cc21 | 6.02 µM | 7.71 µM | 21.2 µM | 37.9 µM | 18 µM | 23.3 µM | 9.53 µM | > 100 µM | 7.88 µM | 32.2 µM
9 | N#Cc1n[nH]n(-c2ccc(Br)cc2)c1=O | > 100 µM | > 100 µM | > 100 µM | > 100 µM | > 100 µM | > 100 µM | > 100 µM | > 100 µM | > 100 µM | > 100 µM
10 | N#C[C@H](c1ccccn1)c1nc2ccccc2nc1Cl | > 100 µM | > 100 µM | > 100 µM | > 100 µM | > 100 µM | > 100 µM | > 100 µM | > 100 µM | > 100 µM | > 100 µM
